This note sets out measurements from the METLIN SMRT retention time set (Domingo-Almenara et al. 2019).

The structures appear in SMILES notation.

The nature of the series: gradient 5% acetonitrile 3 min, to 50% in 2 min, to 85% in 15 min, held 3 min, 100 µL/min. The settings on record: column: Zorbax Extend-C18 2.1 x 50 mm; eluents: water / acetonitrile, 0.1% formic acid. A digest of the protocol: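 The system's dead and dwell volumes were 40 μL and 900 μL, with a Zorbax Extend-C18 column (2.1 × 50 mm, 1.8 μm) run at 100 μL/min in water and acetonitrile containing 0.1% formic acid each. Pure standards were analyzed in mixtures of ~100 molecules by HPLC–quadrupole time-of-flight mass spectrometry in positive and negative ionization mode. Retention time was assigned from computationally picked, manually inspected adduct peaks.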
In the case of `COc1c(C(=O)Nc2ccc3c(c2)OCO3)sc2ccc(Cl)cc12`, the RP-LC retention time stood at 1180 s.

`COc1ccc(CNC(=O)Nc2ccc(-c3nc(-c4ccc(C)cc4C)co3)cc2)cc1` yielded an RP-LC retention time of 1180 s.

Take `Cc1ccc(N(C)S(=O)(=O)c2cc(-c3[nH]ncc3C(=O)N3CCCCC3)oc2C)cc1`: the RP-LC retention time is 835 s. Under `CCCNC(=O)C1CCCN(c2ccc(SCC(=O)NCc3cc(F)cc(F)c3)nn2)C1` (stereo not given) stands 646 s; under `CCCn1cc(S(=O)(=O)NCc2ccccc2Cl)c2cccnc21`, 912 s. As to `COc1ccc(C(=O)N2CCCC2c2cc(C)on2)cc1OC` (stereo not given), the RP-LC retention time was 655 s. As for `CCN1C(=O)CC[C@]2(CNC(=O)c3ccc(OC)nc3)CCC[C@@H]12`, the RP-LC retention time was found to be 671 s.

`CCNC(=O)C1CCCN(c2nc3ncn(CC(=O)Nc4ccccc4F)c(=O)c3s2)C1` (stereo not given) displayed an RP-LC retention time of 647 s.

Compound `Cc1ccc(-c2nc(-c3ccc(S(=O)(=O)N4CCC(C(=O)N5CCCC5)CC4)cc3)no2)cc1F` gave an RP-LC retention time of 1110 s. `O=c1n(Cc2cc(F)cc(F)c2)nc2c(S(=O)(=O)N3CCCCC3)cccn12` returned an RP-LC retention time of 903 s. Regarding `CCc1nc(OCC(=O)Nc2ccc(F)c(Cl)c2)c2ccccc2n1`, the RP-LC retention time amounted to 888 s. On to `O=C(Cc1csc(NC(=O)c2ncccn2)n1)Nc1nc2ccccc2s1`, for which the RP-LC retention time was found to be 670 s.

Regarding `COC(=O)C(NC(=O)N1CCCn2nc(-c3ccc(OC)cc3)cc2C1)c1ccccc1` (stereo not given), the RP-LC retention time was found to be 758 s. Under `CCCN(c1cccc(Cl)c1)c1nc(C(=O)OCC)nc2ccccc12` stands 1200 s; under `CCCCOc1ccc(CNC(=O)c2cc3c(=O)n(C)ccc3n2C)cc1`, 848 s; under `COc1ccc(C(=O)N2CCC3(CC2)N=C(c2ccc(Cl)cc2)NO3)cc1OC`, 784 s. For `Cc1ccc(C)c(Nc2c(-c3cc(Br)ccc3O)nc3ncccn23)c1`, the RP-LC retention time is 1100 s. Under `COc1cc(OC)cc(N2N=NC3C(=O)N(c4ccc(F)cc4)C(=O)C32)c1` (stereo not given) stands 907 s. `Cc1ccc(F)c(NC(=O)C2CCc3nc(N4CCOCC4)ncc3C2)c1` (stereo not given) came in with an RP-LC retention time of 735 s. Consider `Fc1ccccc1-c1noc(N2CCOCC2)n1`, for which the RP-LC retention time is 796 s. In turn, `O=C(Nc1ccc2c(c1)OCCO2)c1cccc(N2CCNC(c3ccccc3)C2)n1` (stereo not given) yielded an RP-LC retention time of 668 s. For `Cn1c(NC(=O)C2CC2)cc(=O)n(C)c1=O` the value was 605 s; for `Cc1cc(Br)ccc1NC(=O)CCc1c(-c2ccc(F)cc2)nc2ccccn12`, 728 s. For `COc1ccc(-c2noc(-c3nc(-c4ccc(N(C)C)cc4)no3)n2)cc1OC`, the RP-LC retention time was 1230 s. With `COC[C@H]1NC(=O)CC[C@H]1C(=O)Nc1ccc2c(c1)OCCO2`, the RP-LC retention time is 632 s.

The compound `COc1ccc(Cl)cc1NC(=O)CSc1cc(N2CCN(c3ccccc3OC)CC2)ncn1` yielded an RP-LC retention time of 1240 s. Under `CCCNC(=O)C1CCN(c2ccc(SCC(=O)Nc3ccccc3Cl)nn2)CC1` stands 655 s; under `COc1ccc(CN2C=C(C(=O)OCc3ccccc3C)C(C)=NS2(=O)=O)cc1`, 1140 s. For `CCS(=O)(=O)c1ccc(C(=O)Nc2nnc(Cc3ccc(Cl)s3)o2)cc1`, the RP-LC retention time was 735 s. Consider `CCN1CCCn2cc(S(=O)(=O)Nc3cccc(C)c3)cc2C1=O`, for which the RP-LC retention time is 724 s. Regarding `O=C(NC1CCCCC1NC(=O)c1cccs1)c1cccs1` (stereo not given), the RP-LC retention time is 728 s. `Cc1ccc(NC(=O)Cn2cnc(C)c(C)c2=O)cc1` gave an RP-LC retention time of 675 s. `CCn1ccc(C(=O)N2CC(n3cc(COC)nn3)C2)n1` gave an RP-LC retention time of 605 s. Under `CCc1nn2c(CNS(=O)(=O)c3cc(F)cc(F)c3)c(-c3ccccc3)nc2s1` stands 963 s; under `O=S(=O)(c1ccc2nncn2c1)N(Cc1ccccc1F)c1cc(F)cc(F)c1`, 874 s. As for `CCOc1ccccc1CNC(=O)CN1CCN(Cc2ccc(F)cc2Cl)C1=O`, the RP-LC retention time worked out at 920 s. `COc1ccc(S(=O)(=O)N2CCCC(C(=O)NC3CCCC3)C2)cc1C` (stereo not given) yielded an RP-LC retention time of 901 s. For `Cc1cccc(-n2nc(C)c3sc(N(C)CC(=O)N4CCN(c5ccccn5)CC4)nc32)c1`, the RP-LC retention time was 700 s. `O=C(NCCOc1ccc2nnc(-c3cccc(F)c3)n2n1)c1cc(=O)c2ccccc2o1` returned an RP-LC retention time of 682 s. `Cc1cc(CN2CCc3nn(Cc4ccccc4)c(=O)n3CC2)n(C)n1` had an RP-LC retention time of 611 s. Regarding `O=C(O)C1CN(C(=O)c2ccc3c(c2)OCO3)C1`, the RP-LC retention time is 579 s. For `COc1ccc(N2CCN(c3cc(SCC(=O)NCc4ccco4)ncn3)CC2)cc1` the value was 748 s; for `Cc1ccccc1Cn1cc(-c2ccncc2)cc1C(=O)Nc1ccc2c(c1)OCO2`, 749 s; for `CCOc1ccc(NS(=O)(=O)c2cc(C(=O)N3CCN(c4cccc(Cl)c4)CC3)n[nH]2)cc1`, 980 s.

The compound `Cc1cccc(-c2noc(C3CCCN3C(=O)c3cccc(Cl)c3)n2)c1` (stereo not given) returned an RP-LC retention time of 1140 s.

On to `COc1cccc2sc(NC(=O)Cc3ccc(Cl)s3)nc12`, for which the RP-LC retention time is 923 s.

Consider `COc1ccc(Cl)cc1NC(=O)CN1C(=O)CC(C)Sc2ccccc21` (stereo not given), for which the RP-LC retention time came out at 926 s. `CCn1ccc(NC(=O)Nc2cccc(C)c2)n1`: the RP-LC retention time was determined as 738 s. `Cc1nnc(NC(=O)CSc2ccc(-c3sc(-c4cccnc4)nc3C)nn2)s1`: the RP-LC retention time was 622 s. `Cn1nc(CNC(=O)c2ccc(Br)cc2)c2ccccc21`: the RP-LC retention time came to 840 s.

In turn, `CCc1nnc(-c2cc(C)n(CC(=O)Nc3cc(C)ccc3C)c2C)o1` showed an RP-LC retention time of 789 s. `O=C(Nc1ccccc1)C1CCN(S(=O)(=O)c2cc(C(=O)N3CCOCC3)cs2)CC1` came in with an RP-LC retention time of 757 s. As for `Cc1cc(C)n(CCNC(=O)C(=O)Nc2cc(C)on2)n1`, the RP-LC retention time came to 608 s. Take `CCCNc1cc(N2CCCC(CCC(=O)Nc3ccccc3)C2)ncn1` (stereo not given): the RP-LC retention time is 703 s. `O=c1c2cc([N+](=O)[O-])ccc2nc(CN2CCN(c3ccccn3)CC2)n1-c1ccccc1F` returned an RP-LC retention time of 670 s.

Take `COc1cc(NC(=O)Cn2ccc3sc(C)cc3c2=O)cc(OC)c1`: the RP-LC retention time came out at 795 s. `CCC(=O)Nc1ccc(CCc2nc3ccc(C(=O)NCCOC)cc3[nH]2)cc1` registered an RP-LC retention time of 567 s. In the case of `CS(=O)(=O)Nc1ccc(-c2noc(-c3cnccn3)n2)cc1`, the RP-LC retention time was 686 s. `CCCCC(C)C(=O)NC1CCN(C2=NS(=O)(=O)C(c3ccc(C)c(C)c3)=C2C)CC1` (stereo not given) registered an RP-LC retention time of 987 s. On to `CC#CCn1c(N2CCC[C@@H](N)C2)nc2c1c(=O)n(Cc1nc(C)c3ccccc3n1)c(=O)n2C`, for which the RP-LC retention time was 670 s. For `O=C(NCc1ccc(F)cc1Cl)c1cn(-c2cc(N3CCOCC3)ncn2)cn1`, the RP-LC retention time worked out at 840 s. `O=C(Cn1c(=O)c2cc(C3CC3)nn2c2ncccc21)NCc1cccs1` yielded an RP-LC retention time of 711 s. `Cc1ccc(NC(=O)Cn2nc(N(C)C)c3ccccc3c2=O)c(F)c1`: the RP-LC retention time was determined as 805 s. As to `CCc1ccccc1N1C=C(C(=O)OC)S(=O)(=O)c2ccccc21`, the RP-LC retention time came to 918 s.

As for `O=C(Cc1cn(Cc2ccccc2)c2ccccc12)NCc1cccs1`, the RP-LC retention time came to 929 s. Take `CCOC(=O)Cc1csc(NS(=O)(=O)c2cn(C)nc2C)n1`: the RP-LC retention time worked out at 592 s.

For `COc1ccc(-c2nnc(Cc3nc(-c4cccc(Cl)c4)no3)o2)cc1`, the RP-LC retention time worked out at 1020 s. `COc1ccc(-c2ncc3c(n2)CCN(C(=O)Nc2ccccc2Cl)C3)cc1` displayed an RP-LC retention time of 948 s.

`CCC(C)N(CCNC(=O)Cc1noc2ccc(C)cc12)Cc1ccco1` (stereo not given) registered an RP-LC retention time of 682 s.

`Cc1nn(CC(=O)N2CCCC2)c(=O)c2c(-n3cccc3)n(-c3cccc(F)c3)nc12` came in with an RP-LC retention time of 876 s. Compound `CCCN1C(=O)COc2ccc(-c3csc(NC(C)=O)n3)cc21` had an RP-LC retention time of 806 s. As for `Cc1nc(CC(=O)Nc2nc(-c3ccc(OC(C)C)cc3)cs2)cs1`, the RP-LC retention time is 1080 s. As for `CCOC(=O)c1cccc(NS(=O)(=O)c2cc(-c3c(CC)noc3NC(C)=O)ccc2OC)c1`, the RP-LC retention time worked out at 814 s. For `Cc1ccc(CN2C[C@@H]3C(=O)N(C)C(=O)[C@@H]3C2)cc1C` the value was 604 s; for `CCOc1ccc(NC(=O)NCCc2cn(CC)c3ncccc23)cc1`, 704 s. With `CCN1CCN(C(=O)CSc2nccnc2Sc2ccccc2)CC1`, the RP-LC retention time came out at 640 s.

In turn, `Cc1cc(C)c(C(=O)N2CCCC(C(=O)NCCC(C)C)C2)[nH]1` (stereo not given) yielded an RP-LC retention time of 788 s.

As for `c1ccc(-c2nnc3sc(-c4ccc5c(c4)OCO5)nn23)nc1`, the RP-LC retention time came to 759 s. In turn, `CCCNC(=O)C1CCCN(c2ccc(SCC(=O)Nc3ccccc3Cl)nn2)C1` (stereo not given) showed an RP-LC retention time of 617 s. For `CCOC(=O)c1noc2nc(C)nc(NCc3ccccc3OC)c12` the value was 1100 s.
